Patent US9919060B2 (University Court of the University of Dundee, priority 2009, dated 2018)

Legend:
CYP1B1 = biological target: T1, CYP1B1 (Homo sapiens, UniProt Q16678); assay: CYP1B1 substrate prediction model (Gaussian Kernel weighted k-NN)
T1 sequence (Q16678 1-543): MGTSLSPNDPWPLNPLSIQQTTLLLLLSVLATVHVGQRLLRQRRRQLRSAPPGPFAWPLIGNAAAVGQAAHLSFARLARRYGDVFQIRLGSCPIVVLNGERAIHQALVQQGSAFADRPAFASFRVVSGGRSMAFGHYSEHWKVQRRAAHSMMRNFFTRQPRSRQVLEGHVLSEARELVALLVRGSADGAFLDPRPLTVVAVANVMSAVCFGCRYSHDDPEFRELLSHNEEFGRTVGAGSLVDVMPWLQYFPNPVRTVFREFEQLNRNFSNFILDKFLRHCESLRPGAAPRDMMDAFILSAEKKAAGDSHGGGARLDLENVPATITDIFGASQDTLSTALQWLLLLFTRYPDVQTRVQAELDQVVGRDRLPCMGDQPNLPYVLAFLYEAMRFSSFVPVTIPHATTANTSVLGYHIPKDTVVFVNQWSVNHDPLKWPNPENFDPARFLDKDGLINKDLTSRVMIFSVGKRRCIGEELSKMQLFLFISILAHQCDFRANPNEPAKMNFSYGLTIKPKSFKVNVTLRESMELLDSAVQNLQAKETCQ

CYP1A1 [1] = biological target: T2, CYP1A1 (Homo sapiens, UniProt P04798); type: cell-based; conditions: TMS 10 nmol dm^−3; without inhibitor 29 ± 4
T2 sequence (P04798 1-512): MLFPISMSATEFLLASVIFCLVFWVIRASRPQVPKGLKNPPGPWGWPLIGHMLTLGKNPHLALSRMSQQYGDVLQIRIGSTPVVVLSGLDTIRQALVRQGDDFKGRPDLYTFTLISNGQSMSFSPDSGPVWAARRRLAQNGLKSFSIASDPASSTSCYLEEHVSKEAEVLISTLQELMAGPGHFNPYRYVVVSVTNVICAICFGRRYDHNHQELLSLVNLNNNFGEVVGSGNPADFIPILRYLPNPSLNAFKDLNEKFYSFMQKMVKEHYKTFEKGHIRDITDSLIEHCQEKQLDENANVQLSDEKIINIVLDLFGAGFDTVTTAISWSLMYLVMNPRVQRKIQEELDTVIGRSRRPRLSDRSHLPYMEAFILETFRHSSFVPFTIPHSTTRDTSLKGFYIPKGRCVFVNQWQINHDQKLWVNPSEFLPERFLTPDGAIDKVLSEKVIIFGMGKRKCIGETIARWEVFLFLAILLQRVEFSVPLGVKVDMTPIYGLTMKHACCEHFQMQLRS
Method: (§1) Dihydrofolate reductase (DHFR) gene amplification of either human cDNA CYP1A1 or cDNA CYP1B1 in CHO cells was used to achieve high levels of functional enzyme when co-expressed with human P450 reductase (ibid.; Ding S, et al., Biochem J., 356(Pt 2): 613-9, 2001). […] The resulting cell lines were analysed for CYP1A1 or CYP1B1 expression by immunoblotting. […]
(§2) The ethoxyresorufin O-deethylation (EROD) assay is widely used to confirm functional CYP1 activity (Chang T K and Waxman D J, “Enzymatic Analysis of cDNA-Expressed Human CYP1A1, CYP1A2, and CYP1B1 with 7-Ethoxyresorufin as Substrate”, Methods Mol. Biol., 320: 85-90, 2006, the contents of which are incorporated herein by reference). The assay determines O-dealkylation of 7-ethoxyresorufin by CYP1A1, CYP1A2, and CYP1B1 to generate the enzymatic product resorufin, which is monitored continuously by fluorescence emission at 580 nm. […]

CYP1A1 [2] = biological target: T2, CYP1A1; conditions: TMS 10 nmol dm^−3; without inhibitor 21 ± 3
[3] = substrate: CCOc1ccc2nc3ccc(=O)cc-3oc2c1; type: cell-based, human; conditions: other: fluorogenic substrate
Method: as §1, §2

Molecule: O=P1(N(CCCl)CCCl)NCCCO1 (stereo not drawn) [cyclophosphamide]
- Toxicity in the CHO cytotoxicity assay at highest concentration (wild-type CHO cells): non-toxic

Molecule: COc1cc(/C=C/c2ccc(OC)cc2OC)cc(OC)c1 [tetramethoxystilbene]
- % CYP1B1 substrate inhibition, accuracy (predicted versus actual) (CYP1B1): 98%
- Specific activity, CHO/CYP1A1, ethoxyresorufin (CYP1A1 [1]): 26 ± 4 pmol resorufin or luciferin min^−1 mg protein^−1
- Specific activity, CHO/CYP1A1, Luciferin-CEE (CYP1A1 [2]): 20 ± 5 pmol resorufin or luciferin min^−1 mg protein^−1

B1: CYP1A1 (Homo sapiens) (protein)
chain: T2 sequence (P04798 1-512)
- Km [3]: Ethoxyresorufin for CYP1A1and CYP1B1 Km ~0.27 μmol dm^−3 μmol dm^−3

B2: CYP1B1 (Homo sapiens) (protein)
chain: T1 sequence (Q16678 1-543)
- Km [3]: Ethoxyresorufin for CYP1A1and CYP1B1 Km ~0.27 μmol dm^−3 μmol dm^−3
